Laboratory results reported in ChEMBL document CHEMBL1759971, “Substituted phenyl triazoles as selective inhibitors of 11β-Hydroxysteroid Dehydrogenase Type 1” (Bioorg Med Chem Lett, 2011).

Columns and labels:
[1] = molecular target: T1, 11-beta-hydroxysteroid dehydrogenase type 2 (Mus musculus, UniProt P51661); assay: Inhibition of mouse 11beta-HSD2
T1 sequence (P51661 whole entry): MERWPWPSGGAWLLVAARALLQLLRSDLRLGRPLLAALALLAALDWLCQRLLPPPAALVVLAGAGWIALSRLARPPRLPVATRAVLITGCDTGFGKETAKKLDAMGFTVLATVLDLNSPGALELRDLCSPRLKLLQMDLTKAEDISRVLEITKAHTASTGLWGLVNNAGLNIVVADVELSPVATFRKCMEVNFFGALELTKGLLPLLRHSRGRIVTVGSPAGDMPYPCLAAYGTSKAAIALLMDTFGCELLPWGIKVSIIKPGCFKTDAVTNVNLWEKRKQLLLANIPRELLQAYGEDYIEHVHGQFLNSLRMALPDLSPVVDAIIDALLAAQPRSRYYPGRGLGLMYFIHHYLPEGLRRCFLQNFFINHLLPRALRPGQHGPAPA

[2] = test system: Mus musculus; assay: Inhibition of 11beta-HSD1 in ICR mouse assessed as conversion of [3H]cortisone to [3H]cortisol at 10 mg/kg, po after 4 hrs by scintillation counting; type: functional
[3] = molecular target: T2, Nuclear receptor subfamily 1 group I member 2 (Homo sapiens, UniProt O75469); assay: Agonist activity at PXR; type: functional
T2 sequence (O75469 whole entry): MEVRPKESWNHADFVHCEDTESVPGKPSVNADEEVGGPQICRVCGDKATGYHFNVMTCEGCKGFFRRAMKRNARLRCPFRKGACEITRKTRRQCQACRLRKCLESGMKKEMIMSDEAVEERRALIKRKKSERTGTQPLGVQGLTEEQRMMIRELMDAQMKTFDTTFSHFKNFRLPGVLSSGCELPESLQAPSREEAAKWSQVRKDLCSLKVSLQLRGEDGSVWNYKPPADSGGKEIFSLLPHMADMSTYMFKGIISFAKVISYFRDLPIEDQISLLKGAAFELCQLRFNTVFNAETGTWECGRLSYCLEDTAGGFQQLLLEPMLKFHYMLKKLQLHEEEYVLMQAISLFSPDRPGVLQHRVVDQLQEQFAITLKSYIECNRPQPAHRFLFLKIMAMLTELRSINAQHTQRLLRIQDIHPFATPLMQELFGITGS

[4] = molecular target: 11-beta-hydroxysteroid dehydrogenase 1 (Homo sapiens, UniProt P28845); assay: Inhibition of human 11beta-HSD1 expressed in CHO-K1 cells assessed as conversion of [3H]cortisone to [3H]cortisol by scintillation counting; type: cell-based
11-beta-hydroxysteroid dehydrogenase 1 (Homo sapiens, UniProt P28845), sequence (P28845 whole entry): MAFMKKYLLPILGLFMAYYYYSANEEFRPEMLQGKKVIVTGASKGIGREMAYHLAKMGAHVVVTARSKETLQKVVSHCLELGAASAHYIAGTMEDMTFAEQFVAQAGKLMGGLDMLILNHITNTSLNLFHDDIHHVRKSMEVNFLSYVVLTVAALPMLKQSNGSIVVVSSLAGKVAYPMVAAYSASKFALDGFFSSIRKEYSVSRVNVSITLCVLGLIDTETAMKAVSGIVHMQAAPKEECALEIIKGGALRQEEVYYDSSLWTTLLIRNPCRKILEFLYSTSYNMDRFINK

[5] = molecular target: T3, 11-beta-hydroxysteroid dehydrogenase type 2 (Homo sapiens, UniProt P80365); assay: Inhibition of human 11beta-HSD2
T3 sequence (P80365 whole entry): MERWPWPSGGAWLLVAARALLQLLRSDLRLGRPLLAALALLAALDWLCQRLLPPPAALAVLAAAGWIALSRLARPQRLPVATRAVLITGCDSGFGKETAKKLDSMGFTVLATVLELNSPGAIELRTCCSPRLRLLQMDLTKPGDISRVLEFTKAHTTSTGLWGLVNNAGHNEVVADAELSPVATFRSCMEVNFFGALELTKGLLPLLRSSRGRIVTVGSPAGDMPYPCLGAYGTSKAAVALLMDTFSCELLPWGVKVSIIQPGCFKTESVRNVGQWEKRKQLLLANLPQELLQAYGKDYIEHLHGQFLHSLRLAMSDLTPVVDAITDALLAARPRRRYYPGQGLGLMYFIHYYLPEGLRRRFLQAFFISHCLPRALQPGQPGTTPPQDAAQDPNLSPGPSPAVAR

[6] = test system: Mus musculus; assay: Inhibition of 11beta-HSD1 in ICR mouse assessed as conversion of [3H]cortisone to [3H]cortisol at 10 mg/kg, po after 16 hrs by scintillation counting; type: functional
[7] = molecular target: T2, Nuclear receptor subfamily 1 group I member 2; assay: Agonist activity at PXR at 10 uM; type: functional
[8] = molecular target: 11-beta-hydroxysteroid dehydrogenase 1 (Mus musculus, UniProt P50172); assay: Inhibition of mouse 11beta-HSD1 expressed in CHO-K1 cells assessed as conversion of [3H]cortisone to [3H]cortisol by scintillation counting; type: cell-based
11-beta-hydroxysteroid dehydrogenase 1 (Mus musculus, UniProt P50172), sequence (P50172 whole entry): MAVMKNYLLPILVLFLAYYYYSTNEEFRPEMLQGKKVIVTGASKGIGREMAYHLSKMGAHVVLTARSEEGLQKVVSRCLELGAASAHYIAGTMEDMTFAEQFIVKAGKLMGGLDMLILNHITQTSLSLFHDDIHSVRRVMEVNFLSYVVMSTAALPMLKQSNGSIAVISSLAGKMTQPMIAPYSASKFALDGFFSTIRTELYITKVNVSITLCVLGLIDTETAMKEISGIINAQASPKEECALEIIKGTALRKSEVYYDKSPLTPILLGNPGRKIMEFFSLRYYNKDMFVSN

Structure (SMILES) | IC50 [1] [nM] | inhibition in vivo at 10 mg/kg [2] [%] | EC50 [3] [nM] | IC50 [4] [nM] | IC50 [5] [nM] | inhibition in vivo at 10 mg/kg [6] [%] | Activity [7] [%] | IC50 [8] [nM]
CC(=O)Nc1ccc(-c2nnc(C3(c4ccc(Cl)cc4)CCC3)n2C)cc1 | > 4000 | 59 | > 30000 | 5.8 | > 4000 | 10 | 21 | 9.1
Cn1c(-c2ccc(-c3ccc(Cl)nn3)cc2)nnc1C1(c2ccc(Cl)cc2)CCC1 | > 4000 | 40 | > 30000 | 1.5 | > 4000 | -7 | 14 | 1.5
Cn1c(-c2ccc(-c3cccnc3)cc2F)nnc1C1(c2ccc(Cl)cc2)CCC1 | > 4000 | 86 | > 30000 | 1.8 | > 4000 | 15 | 43 | 1.6
Cn1c(-c2ccc(C(N)=O)cc2Cl)nnc1C1(c2ccc(Cl)cc2)CCC1 | > 4000 | 57 | > 30000 | < 1 | > 4000 | 12 | 16 | 1
Cn1c(-c2ccc(N)cc2)nnc1C1(c2ccc(Cl)cc2)CCC1 |  | 77 | > 30000 |  | 3100 | 12 | 22 | 15
Cn1c(-c2ccc(-c3cnc(N)nc3)cc2)nnc1C1(c2ccc(Cl)cc2)CCC1 | > 4000 | 34 | > 30000 | 2.2 | > 4000 | -5 | 3 | 2.2
Cn1c(-c2ccc(-c3ccon3)cc2)nnc1C1(c2ccc(Cl)cc2)CCC1 | > 4000 | 95 | > 30000 | 11 | > 4000 | 67 | 35 | 6
Cn1c(-c2ccc(C(N)=O)cc2)nnc1C1(c2ccc(Cl)cc2)CCC1 | > 4000 | 35 | > 30000 | 1 | > 4000 | 4 | 21 | 26
Cn1c(-c2ccc(-c3ccsc3)cc2)nnc1C1(c2ccc(Cl)cc2)CCC1 |  | 81 | 3000 |  | 1300 | 33 | 78 | < 1
Cn1c(-c2ccc(-c3cc(=O)[nH]cn3)cc2)nnc1C1(c2ccc(Cl)cc2)CCC1 | > 4000 | 26 | > 30000 | 8.8 | > 4000 | 14 | 15 | 2.8
Cn1c(-c2ccc(NC(=O)c3ccno3)cc2)nnc1C1(c2ccc(Cl)cc2)CCC1 | > 4000 | 69 | > 30000 | 8 | > 4000 | 11 | 21 | 2.8
Cn1c(-c2ccc(C(=O)NC(C)(C)C)cc2)nnc1C1(c2ccc(Cl)cc2)CCC1 | > 4000 | 71 | > 30000 | 540 | > 4000 | 5 | 11 | 3
Cn1c(-c2ccc(C(=O)NC3CCC3)cc2)nnc1C1(c2ccc(Cl)cc2)CCC1 | > 4000 |  | > 30000 | 470 | > 4000 |  | 4 | 6.6
Cn1c(-c2ccc(C(N)=O)cc2C(N)=O)nnc1C1(c2ccc(Cl)cc2)CCC1 | > 4000 | -11 | > 30000 | 2.2 | > 4000 | 0 | -7 | 150
Cn1c(-c2ccc(NC(=O)c3cnccn3)cc2Cl)nnc1C1(c2ccc(Cl)cc2)CCC1 | > 4000 | 82 | > 30000 | 2.6 | > 4000 | 46 | 33 | 1.9
Cn1c(-c2ccc(-c3ccccc3)cc2)nnc1C1(c2ccc(Cl)cc2)CCC1 |  |  | 1700 |  |  |  | 90 | 
Cc1noc(C)c1-c1ccc(-c2nnc(C3(c4ccc(Cl)cc4)CCC3)n2C)cc1 | > 4000 | 63 | > 30000 | 4.8 | > 4000 | 9 | 26 | 3.4
Cn1c(-c2ccc(-c3cnccn3)cc2F)nnc1C1(c2ccc(Cl)cc2)CCC1 | > 4000 | 91 | 4800 | 2.8 | > 4000 | 81 | 74 | 1.7
Cc1cc(C(=O)Nc2ccc(-c3nnc(C4(c5ccc(Cl)cc5)CCC4)n3C)cc2)c(C)o1 | > 4000 | 91 | > 30000 | 9.5 | > 4000 | 81 | 18 | < 1
Cn1c(-c2ccc(-c3cnoc3)cc2)nnc1C1(c2ccc(Cl)cc2)CCC1 | > 4000 |  | 23000 | 1.1 | > 4000 |  | 29 | 4.1
Cn1c(-c2ccc(C(=O)NC3CC3)cc2)nnc1C1(c2ccc(Cl)cc2)CCC1 | > 4000 |  | > 30000 | 300 | > 4000 |  | 14 | 11
Cn1c(-c2ccc(-c3cnccn3)cc2C(N)=O)nnc1C1(c2ccc(Cl)cc2)CCC1 | > 4000 |  | > 30000 | 120 | > 4000 |  | 4 | 68
Cn1c(-c2ccc(-c3ccc(N)nn3)cc2)nnc1C1(c2ccc(Cl)cc2)CCC1 | > 4000 |  | > 30000 | 4.8 | > 4000 |  | 12 | 1.1
Cn1c(-c2ccc(N)cc2Cl)nnc1C1(c2ccc(Cl)cc2)CCC1 |  | 90 | > 30000 |  | 2300 | 38 | 35 | < 1
Cn1c(-c2ccc(-c3cccnc3)cc2Cl)nnc1C1(c2ccc(Cl)cc2)CCC1 |  |  |  |  | > 4000 |  | 35 | 
Cn1c(-c2ccc(-c3cnc(O)nc3)cc2)nnc1C1(c2ccc(Cl)cc2)CCC1 | > 4000 |  | > 30000 | 1.2 | > 4000 |  | 9 | 2.9
Clc1ccc(C2(c3nnc4n3CCCCCC4)CCC2)cc1 |  |  | 1600 |  |  |  | 100 | 
Cn1c(-c2ccc(C(=O)N3CCOCC3)cc2)nnc1C1(c2ccc(Cl)cc2)CCC1 | > 4000 |  | > 30000 | 560 | > 4000 |  | 16 | 200
Cn1c(-c2ccc(C(=O)N3CCC3)cc2)nnc1C1(c2ccc(Cl)cc2)CCC1 | > 4000 |  | > 30000 | 250 | > 4000 |  | 10 | 62
